# From patent US12447153B2, “HER2 mutation inhibitors” (Array BioPharma Inc., priority 2021, dated 2025)
# How the values were obtained:
# ErbB2 WT = ErbB2 WT (Homo sapiens (Human), UniProt P04626); assay: ErbB Enzyme Assay (HTRF KinEASE-TK), Assay 2; format: biochemical
# EGFR = EGFR (Homo sapiens (Human), UniProt P00533); assay: ErbB Enzyme Assay (HTRF KinEASE-TK), Assay 3; format: biochemical
# [1] = molecular target: ErbB2 with Exon 20 YVMA insertion (HER2-YVMA) (Homo sapiens (Human), UniProt P04626, INS775YVMA); assay: Cellular Phosphorylation Assay, Assay 4 (constitutive ErbB2 phosphorylation, NIH 3T3 cells); format: cell-based
# Sequence of ErbB2 with Exon 20 YVMA insertion (HER2-YVMA) (P04626 other isoform, or with tags, fused parts or gaps ins YVMA behind 775): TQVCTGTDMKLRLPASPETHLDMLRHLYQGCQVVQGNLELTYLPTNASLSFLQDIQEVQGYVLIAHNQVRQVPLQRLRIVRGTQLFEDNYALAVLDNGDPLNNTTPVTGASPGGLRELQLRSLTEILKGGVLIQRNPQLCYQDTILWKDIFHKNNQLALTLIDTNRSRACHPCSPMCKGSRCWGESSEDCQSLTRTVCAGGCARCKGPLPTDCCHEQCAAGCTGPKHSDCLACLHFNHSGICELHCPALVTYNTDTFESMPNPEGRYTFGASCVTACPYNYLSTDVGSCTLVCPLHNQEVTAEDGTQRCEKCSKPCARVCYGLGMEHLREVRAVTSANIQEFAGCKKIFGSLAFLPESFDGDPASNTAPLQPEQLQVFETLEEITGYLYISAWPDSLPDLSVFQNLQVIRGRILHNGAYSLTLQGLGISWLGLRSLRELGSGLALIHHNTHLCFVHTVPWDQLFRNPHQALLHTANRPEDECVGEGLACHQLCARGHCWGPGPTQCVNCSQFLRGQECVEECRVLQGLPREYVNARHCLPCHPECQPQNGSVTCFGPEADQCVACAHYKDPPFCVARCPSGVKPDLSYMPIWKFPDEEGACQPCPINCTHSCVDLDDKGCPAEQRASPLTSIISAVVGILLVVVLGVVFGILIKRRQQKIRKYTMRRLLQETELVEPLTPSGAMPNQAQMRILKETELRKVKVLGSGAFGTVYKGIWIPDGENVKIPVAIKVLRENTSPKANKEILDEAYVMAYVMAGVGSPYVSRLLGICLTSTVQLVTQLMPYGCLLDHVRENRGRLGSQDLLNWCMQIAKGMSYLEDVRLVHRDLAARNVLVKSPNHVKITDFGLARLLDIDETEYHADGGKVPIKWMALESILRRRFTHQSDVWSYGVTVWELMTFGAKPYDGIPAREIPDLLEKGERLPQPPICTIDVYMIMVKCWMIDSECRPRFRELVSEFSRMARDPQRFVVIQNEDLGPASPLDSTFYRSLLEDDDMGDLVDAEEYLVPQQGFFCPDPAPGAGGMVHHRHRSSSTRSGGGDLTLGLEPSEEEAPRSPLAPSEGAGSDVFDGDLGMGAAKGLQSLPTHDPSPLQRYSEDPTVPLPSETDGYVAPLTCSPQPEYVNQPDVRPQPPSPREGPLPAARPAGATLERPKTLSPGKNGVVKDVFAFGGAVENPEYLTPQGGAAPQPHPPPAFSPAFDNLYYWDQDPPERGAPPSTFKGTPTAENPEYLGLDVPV
# EGFR wild type (EGFR WT) = EGFR wild type (EGFR WT) (Homo sapiens (Human), UniProt P00533); assay: Cellular Phosphorylation Assay, Assay 5 (EGF-stimulated EGFR phosphorylation, NIH 3T3 cells); format: cell-based
# BCRP = BCRP (Homo sapiens (Human), UniProt Q9UNQ0); assay: BCRP MDCKII efflux assay (Assay 7); format: in vitro ADME; settings: dog; efflux ratio Papp(B-A)/Papp(A-B), BCRP MDCKII cells; read-out: Assay 7 Pe Ratio
# Sequence of BCRP (Q9UNQ0 whole entry): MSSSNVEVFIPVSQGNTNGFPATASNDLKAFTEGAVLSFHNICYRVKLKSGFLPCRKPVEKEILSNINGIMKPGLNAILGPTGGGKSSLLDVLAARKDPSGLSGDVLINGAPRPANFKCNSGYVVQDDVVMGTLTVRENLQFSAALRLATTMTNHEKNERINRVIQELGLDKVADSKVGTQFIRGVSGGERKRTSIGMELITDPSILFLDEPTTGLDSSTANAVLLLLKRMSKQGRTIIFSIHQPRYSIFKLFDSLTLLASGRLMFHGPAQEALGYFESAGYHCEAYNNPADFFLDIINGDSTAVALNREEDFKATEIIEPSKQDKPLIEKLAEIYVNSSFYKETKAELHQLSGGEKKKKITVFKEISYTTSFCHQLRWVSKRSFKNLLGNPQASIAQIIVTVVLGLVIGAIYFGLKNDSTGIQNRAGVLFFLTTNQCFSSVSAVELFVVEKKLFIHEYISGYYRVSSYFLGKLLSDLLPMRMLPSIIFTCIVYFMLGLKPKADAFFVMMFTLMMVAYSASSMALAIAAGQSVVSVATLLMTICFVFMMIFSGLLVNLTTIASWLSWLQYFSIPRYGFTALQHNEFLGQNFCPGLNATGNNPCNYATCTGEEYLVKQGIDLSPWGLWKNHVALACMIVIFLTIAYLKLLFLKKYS
# Protocol: Assay conditions included with and without the BCRP-specific inhibitor, KO143, at a concentration of 0.3 μM to ascertain the contribution of BCRP to the efflux value of the test compound.
# Final organic concentration in the assay was 1%.
# [2] = EGF-stimulated EGFR WT phosphorylation
# [3] = cellular ErbB2 YVMA phosphorylation
# [4] = cellular EGFR WT phosphorylation, EGF-stimulated
# Sequence of ErbB2 WT (P04626 23-1255): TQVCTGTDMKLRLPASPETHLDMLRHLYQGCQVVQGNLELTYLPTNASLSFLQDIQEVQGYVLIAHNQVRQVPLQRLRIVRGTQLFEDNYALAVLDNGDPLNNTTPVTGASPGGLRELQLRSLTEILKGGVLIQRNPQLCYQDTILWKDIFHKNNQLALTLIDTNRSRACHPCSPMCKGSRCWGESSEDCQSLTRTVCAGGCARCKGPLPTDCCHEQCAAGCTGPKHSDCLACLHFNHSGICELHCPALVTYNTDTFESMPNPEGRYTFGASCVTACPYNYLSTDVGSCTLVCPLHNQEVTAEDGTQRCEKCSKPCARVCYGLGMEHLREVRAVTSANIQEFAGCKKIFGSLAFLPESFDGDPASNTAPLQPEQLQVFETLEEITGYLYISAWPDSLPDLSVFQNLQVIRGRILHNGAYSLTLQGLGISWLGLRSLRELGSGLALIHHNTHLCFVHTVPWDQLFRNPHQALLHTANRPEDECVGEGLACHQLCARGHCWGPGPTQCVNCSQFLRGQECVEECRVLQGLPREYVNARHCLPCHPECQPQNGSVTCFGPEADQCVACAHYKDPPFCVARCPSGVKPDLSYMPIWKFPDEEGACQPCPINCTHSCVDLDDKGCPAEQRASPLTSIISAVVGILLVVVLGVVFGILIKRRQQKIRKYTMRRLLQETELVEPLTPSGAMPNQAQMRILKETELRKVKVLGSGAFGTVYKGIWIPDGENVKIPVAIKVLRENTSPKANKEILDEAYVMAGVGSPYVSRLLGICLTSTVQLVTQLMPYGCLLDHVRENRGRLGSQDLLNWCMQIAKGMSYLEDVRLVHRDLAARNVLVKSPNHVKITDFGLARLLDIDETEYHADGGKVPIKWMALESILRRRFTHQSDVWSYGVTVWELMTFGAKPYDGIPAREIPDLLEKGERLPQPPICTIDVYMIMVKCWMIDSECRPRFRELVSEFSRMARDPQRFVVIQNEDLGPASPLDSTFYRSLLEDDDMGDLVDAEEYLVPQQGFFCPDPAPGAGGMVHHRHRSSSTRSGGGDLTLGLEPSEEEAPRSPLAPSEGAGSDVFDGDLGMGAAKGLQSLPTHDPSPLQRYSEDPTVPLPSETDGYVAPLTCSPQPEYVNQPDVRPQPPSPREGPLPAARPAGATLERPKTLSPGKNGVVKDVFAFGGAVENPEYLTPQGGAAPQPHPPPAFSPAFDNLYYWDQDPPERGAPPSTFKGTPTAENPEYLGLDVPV
# Sequence of EGFR (P00533 25-1210): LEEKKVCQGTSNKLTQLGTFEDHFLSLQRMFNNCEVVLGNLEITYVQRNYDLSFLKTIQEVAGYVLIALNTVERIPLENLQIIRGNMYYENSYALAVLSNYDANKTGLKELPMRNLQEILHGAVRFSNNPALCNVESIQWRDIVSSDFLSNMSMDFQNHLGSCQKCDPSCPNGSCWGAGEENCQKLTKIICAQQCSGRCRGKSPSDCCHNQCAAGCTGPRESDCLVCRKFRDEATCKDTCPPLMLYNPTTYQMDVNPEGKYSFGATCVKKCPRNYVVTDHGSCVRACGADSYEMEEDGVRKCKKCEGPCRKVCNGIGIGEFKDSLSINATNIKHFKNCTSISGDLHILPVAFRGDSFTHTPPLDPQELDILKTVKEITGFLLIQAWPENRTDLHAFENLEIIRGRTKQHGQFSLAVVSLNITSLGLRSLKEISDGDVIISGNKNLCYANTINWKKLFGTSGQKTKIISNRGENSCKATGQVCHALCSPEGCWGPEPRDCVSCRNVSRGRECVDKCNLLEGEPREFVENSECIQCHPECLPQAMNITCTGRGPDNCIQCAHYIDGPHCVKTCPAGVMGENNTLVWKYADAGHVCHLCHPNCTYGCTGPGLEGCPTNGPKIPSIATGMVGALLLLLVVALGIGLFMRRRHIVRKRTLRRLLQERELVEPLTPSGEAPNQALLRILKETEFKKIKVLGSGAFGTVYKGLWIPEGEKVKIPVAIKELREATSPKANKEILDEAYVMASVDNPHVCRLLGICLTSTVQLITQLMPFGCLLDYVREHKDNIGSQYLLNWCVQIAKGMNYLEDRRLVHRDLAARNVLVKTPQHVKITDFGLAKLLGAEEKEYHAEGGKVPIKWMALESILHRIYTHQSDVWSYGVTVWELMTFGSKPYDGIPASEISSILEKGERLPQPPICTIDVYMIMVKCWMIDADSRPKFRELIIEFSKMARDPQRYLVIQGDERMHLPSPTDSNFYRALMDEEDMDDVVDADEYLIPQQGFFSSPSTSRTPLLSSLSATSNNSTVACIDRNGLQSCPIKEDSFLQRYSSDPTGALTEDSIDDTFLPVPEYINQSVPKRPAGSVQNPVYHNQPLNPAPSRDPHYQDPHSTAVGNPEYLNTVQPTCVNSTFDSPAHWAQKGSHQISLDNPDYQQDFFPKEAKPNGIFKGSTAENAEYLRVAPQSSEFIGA
SMILES,IC50 (ErbB2 WT; ErbB2 WT enzyme),IC50 (EGFR; EGFR enzyme),IC50 ([1]; ErbB2 YVMA phosphorylation),IC50 (EGFR wild type (EGFR WT); [2]),"efflux ratio at 2 h, 1 µM (BCRP)",IC50 (ErbB2 WT; ErbB2 WT enzyme assay),IC50 (EGFR; EGFR enzyme assay),"IC50 [1, 3]",IC50 (EGFR wild type (EGFR WT); [4])
"C=CC(=O)N1CCN(c2ccc3ncnc(Nc4ccc(Oc5ccn6ncnc6c5)c(Cl)c4)c3n2)CC1(C)C [Example 74, 1-(4-(4-((4-([1,2,4]triazolo[1,5-a]pyridin-7-yloxy)-3-chlorophenyl)amino)pyrido[3,2-d]pyrimidin-6-yl)-2,2-dimethylpiperazin-1-yl)prop-2-en-1-one]",9.2 nM,1710 nM,5.7 nM,298 nM,6.4,–,–,–,–
"C=CC(=O)N1CCC(Oc2nc3c(Nc4ccc(Oc5ccc6cn(C)nc6c5)c(C)c4)ncnc3cc2OC)CC1 [Example 157, 1-(4-((7-methoxy-4-((3-methyl-4-((2-methyl-2H-indazol-6-yl)oxy)phenyl)amino)pyrido[3,2-d]pyrimidin-6-yl)oxy)piperidin-1-yl)prop-2-en-1-one]",209 nM,2270 nM,21.3 nM,1740 nM,6.8,–,–,–,–
C=CC(=O)N1CCN(c2ccc3ncnc(Nc4ccc(Oc5ccc6c(c5)ncn6C)c(C(F)F)c4)c3n2)CC1 [Example 447],–,–,–,–,20.3,29.2 nM,≥ 10000 nM,17.5 nM,≥ 5000 nM
C=CC(=O)N1C[C@@H]2CN(c3ccc4ncnc(Nc5ccc(Oc6ccc7c(c6)ncn7C)c(C)c5F)c4n3)C[C@@H]21 [Example 323],–,–,–,–,6.7,36.4 nM,≥ 10000 nM,23.8 nM,≥ 5000 nM
"C=CC(=O)N1CCC(c2ccc3ncnc(Nc4ccc(Oc5ccc6c(c5)ncn6C)c(C)c4)c3n2)CC1C (centres unmarked) [Example 123, 1-(2-methyl-4-(4-((3-methyl-4-((1-methyl-1H-benzo[d]imidazol-5-yl)oxy)phenyl)amino)pyrido[3,2-d]pyrimidin-6-yl)piperidin-1-yl)prop-2-en-1-one]",60.4 nM,≥ 10000 nM,7.6 nM,≥ 5000 nM,7.3,–,–,–,–
"C=CC(=O)N1C2CC1CN(c1ccc3ncnc(Nc4ccc(Oc5ccn6ncnc6c5)c(C)c4F)c3n1)C2 [Example 47, 1-(3-(4-((4-([1,2,4]triazolo[1,5-a]pyridin-7-yloxy)-2-fluoro-3-methylphenyl)amino)pyrido[3,2-d]pyrimidin-6-yl)-3,6-diazabicyclo[3.1.1]heptan-6-yl)prop-2-en-1-one]",60.9 nM,3720 nM,13.7 nM,2130 nM,9.6,–,–,–,–
"C=CC(=O)N1CCN(c2ccc3ncnc(Nc4ccc(Oc5ccn6ncnc6c5)c(Cl)c4)c3n2)CC1 [Example 97, 1-(4-(4-((4-([1,2,4]triazolo[1,5-a]pyridin-7-yloxy)-3-chlorophenyl)amino)pyrido[3,2-d]pyrimidin-6-yl)piperazin-1-yl)prop-2-en-1-one]",3.2 nM,344 nM,3.2 nM,413 nM,47,–,–,–,–
C=CC(=O)N1CC2CCC(C1)N2c1ccc2ncnc(Nc3cc(Cl)c(Oc4ccn5ncnc5c4)cc3F)c2n1 [Example 441],–,–,–,–,7.3,31.1 nM,682 nM,17.8 nM,770 nM
"C=CC(=O)N1CCN(c2ccc3ncnc(Nc4ccc(Oc5ccc6c(c5)ncn6C)c(C)c4)c3n2)CC1(C)C [Example 103, 1-(2,2-dimethyl-4-(4-((3-methyl-4-((1-methyl-1H-benzo[d]imidazol-5-yl)oxy)phenyl)amino)pyrido[3,2-d]pyrimidin-6-yl)piperazin-1-yl)prop-2-en-1-one]",2.9 nM,≥ 10000 nM,4.6 nM,1320 nM,10.9,–,–,–,–
C=CC(=O)N1C[C@H]2C[C@@H]1CN(c1ccc3ncnc(Nc4cc(Cl)c(Oc5cnc6c(c5)ncn6C)cc4F)c3n1)C2 [Example 294],–,–,–,–,7.2,1170 nM,≥ 10000 nM,22.2 nM,≥ 5000 nM
